Experimental findings from US5770573A, “CS-1 peptidomimetics, compositions and methods of using the same” (Cytel Corporation, priority 1995, dated 1998) are described below.

Square brackets hold non-standard residues; d marks the D form. Peptide text beside a SMILES is read from it. * marks the point of attachment. PhAc = O=C(Cc1ccccc1)*

In assay [1] the test system is Porcine peripheral blood lymphocytes. Kind of assay: In vitro porcine allograft model: transendothelial lymphocyte migration. The format is cell-based. The note with it: 10 μg/ml in the medium; IL-1β-stimulated SMC. As for the experimental part: A similar study was carried out in vitro using porcine coronary artery endothelial cells (EC; as are present in the IEL) and smooth muscle cells (SMC; as are present in the medial layer of the artery). The two cell types were cultured using a membrane transwell system, with the SMC on the bottom layer in M-199 medium (Gibco Labs.). The SMC were stimulated with 100 ng/ml of interleukin-1β (IL-1β) for 24 hours prior to the start of the assay. Porcine peripheral blood lymphocytes were separated by Ficoll-Hypaque, radiolabeled and incubated overnight (about 18 hours) on the EC.
Transendothelial lymphocyte migration in the IL-1β-stimulated SMC was observed as compared to unstimulated SMC (p<0.05).

For assay [2], the system named is rabbit cardiac allograft coronary arteries. Kind of assay: Rabbit cardiac allograft model. For Expression on Coronary Arteries: ICAM-1: key: -: negative; ±: minimal; +: little; ++: moderately abundant; +++: very abundant. For Expression on Coronary Arteries: Macrophages: key: -: negative; ±: minimal; +: little; ++: moderately abundant; +++: very abundant. For Expression on Coronary Arteries: T cells: key: -: negative; ±: minimal; +: little; ++: moderately abundant; +++: very abundant. For Expression on Coronary Arteries: Total Fibronectin: key: -: negative; ±: minimal; +: little; ++: moderately abundant; +++: very abundant. The format is in vivo. The text has this: New Zealand white rabbit SPF hearts were allografted into the necks of similar rabbits to assay a graft-vs-host immunorejection model and the affect of a contemplated compound on that immunoinflammatory response.
Experimental animal model New Zealand white female rabbits (Charles River Lab., Saint Laurent, Quebec), between 3.5 and 4 kg underwent heterotopic cardiac transplant following an experimental protocol previously described [Alonso et al., Am. J. Pathol., 87:415-442 (1977); Clausell et al., Circulation, 89:2768-2779 (1994)]. The animals were unselected to favor an HLA-mismatch, the host rabbits were Pasteurella-free and the donors, outbred animals. Both host and donor rabbits were fed Purina 5321-0.5 percent cholesterol diet (Research Diets Inc., New Brunswick, N.J.), a strategy that has proven useful in accelerating the process of allograft arteriopathy [Alonso et al., Am. J. Pathol., 87:415-442 (1977)]. The diet was commenced four days prior to the transplant and continued in the recipient of the transplant until the completion of the experimental period.
The technique of heterotopic cardiac transplantation has been previously described [Clausell et al., Circulation, 89:2768-2779 (1994)]. Briefly, a vertical incision was performed in the anterior aspect of the neck of the recipient rabbit and the left common carotid artery and the ipsilateral external jugular vein were isolated. The cardiac allograft was placed in the neck by anastomosing the aorta end-to-side to the recipient's carotid artery and the pulmonary end-to-side to the recipient's external jugular vein, following a total period of ischemia for the donor hearts of approximately 30 minutes. Postoperative care was in compliance with the Principles of Laboratory Animal Care formulated by the Canadian National Society for Medical Research.
Beginning the day of the transplant, the animals were randomized and treated with either scrambled compound (control group) at 1 mg/kg s.c. or the inhibitor compound at 1 mg/kg s.c. The doses of the compounds were empirically extrapolated to the in vivo model based on preliminary in vitro studies, of Table 1. No other immunosuppression therapy was administered. The grafts were monitored daily by palpation and maintained for 7 to 8 days, a previously described endpoint that was associated with myocardial rejection (impaired cardiac contractility) and development of the allograft arteriopathy in this model [Clausell et al., Circulation, 89:2768-2779 (1994)]. A total of fourteen animals were studied in the control (n=7) and treated (n=7) groups.
Preparation of the hearts The animals were sacrificed using a lethal dose of euthanol (480 mg i.v.) (MTC Pharmaceutical, Cambridge, Oreg.), host and donor hearts were removed, and the coronary arteries were perfused with saline through the aorta, followed by light fixation by perfusion with 2 percent paraformaldehyde (Sigma, St, Louis, Mo.). […] Different sections of the hearts were either saved in 10 percent formalin (BDH Inc., Toronto, ON) for light microscopy studies or immediately frozen in O.T.C. Compound Tissue Tek (Miles Inc., Elkart, In.) for specific immunohistochemistry studies.
Three different paraffin-embedded tissue sections from host and donor hearts from both control and treated rabbits were stained by the Movat pentachrome method for light microscopy. Morphometric analysis was performed using a Zeiss microscope attached to a computer-generated video analysis system (Perceptics Inc., NuVision software), as described in Clausell et al., Circulation, 89:2768-2779 (1994). The number of vessels with intimal lesions were counted in all three heart sections from each animal studied and are expressed as a percentage of the total vessel number.
In the host hearts, 999 vessels in the control group and 1054 vessels in the treated group were analyzed. In the donor hearts, 827 vessels in the control group and 617 vessels in the treated group were analyzed. […]

In assay [3] the test system is delayed-type hypersensitivity murine model. Kind of assay: Adoptive transfer delayed type hypersensitivity in mice (oxazolone). The format is in vivo, mouse. The note with it: 6 mg/kg/day s.c. by implanted pump for 24 hours; versus saline. As for the experimental part:
An adoptive transfer delayed-type hypersensitivity murine model has been developed using splenic T cells primed to oxazolone. This model is described in Elices et al., Clin. Exp. Rheum., 11 (Suppl. 8):577-580 (1993), whose procedures were followed here.
Thus, BALB/c mice were shaved on the belly and painted (50 μl on the belly and 5 μl on each paw) with three percent oxazolone in acetone/olive oil (4:1) at days zero and 1. At day 5, the mice were sacrificed, their spleens removed, and splenic T cells were obtained via nylon wool columns.
Normal saline or saline containing 25×10^6 /animal of the oxazolone-immune T cells were separately injected into naive mice. The mice were then challenged by painting 10 μl of 2 percent oxazolone onto one ear each. All procedures were carried out under sterile conditions and in endotoxin-free buffers.
Prior to challenge or saline injection, the mice were implanted with pumps that subcutaneously administered normal saline, normal saline containing the compound, Compound ID No. 896.52, N-phenylacetyl-Leu-Asp-Phe-D-Pro-NH2, or normal saline containing a compound with a scrambled sequence continually at 6 mg/kg/day for a 24-hour time period. The swelling diameter at the site of challenge or saline injection was measured with a microcaliper 24 hours thereafter.
An expanded study was carried out as described above except that a scrambled compound control was not used as a control for further inhibitor compounds of Table 1 with larger groups of mice. Statistical analyses were carried out versus injection of vehicle alone.

`CC(C)C[C@H](NC(=O)[C@H](CC(=O)O)NC(=O)Cc1ccccc1)C(=O)N[C@@H](Cc1ccccc1)C(=O)N1CCC[C@@H]1C(N)=O` [Compound ID No. 1066.02, N-phenylacetyl-Asp-Leu-Phe-D-Pro-NH2, reference compound] (PhAc-DLF[dP]-NH2): the “reduction of lymphocyte migration” value in assay [1] is recorded as “did not reduce migration”. For the same compound, in assay [2] (1 mg/kg s.c., 7 to 8 days), the “Expression on Coronary Arteries: ICAM-1” value is “+”, the “Expression on Coronary Arteries: Macrophages” value is “+”, the “Expression on Coronary Arteries: T cells” value is on record as “++” and the “Expression on Coronary Arteries: Total Fibronectin” value was “++”. Further, the “Expression on Coronary Arteries: VCAM-1” value in assay [2] (1 mg/kg s.c., 7 to 8 days) is “+”. Further, in assay [2] (1 mg/kg s.c., 7 to 8 days, immunoperoxidase score), the “Expression on Coronary Arteries: MHC Class II” value is on record as “++”. Further, in assay [2] (donor hearts, 1 mg/kg s.c.), the “Vessel Intimal Thickening: Percent of Vessels” value is 88% and the “Vessel Intimal Thickening: Severity (Percent of Vessel area)” value is listed as 36%. Further, in assay [2] (host heart), the “Baseline (rabbit own host heart) of incidence” value is 1% and the “Baseline (rabbit own host heart) of severity” value is 12%. Further, the “swelling at challenge site (initial study, FIG. 5)” value in assay [3] is reported as “no reduction of inflammation”.
